ChEMBL document CHEMBL1949621, “Fluorocyclines. 1. 7-fluoro-9-pyrrolidinoacetamido-6-demethyl-6-deoxytetracycline: a potent, broad spectrum antibacterial agent” (J Med Chem, 2012)
Converted amounts (≈) assume the structure as drawn.

Tests used:
Bacterial 70S ribosome = test: Inhibition of Escherichia coli ribosome-mediated translation after 60 mins by transcription/translation-coupled luciferase reporter gene assay; type: subcellular
Staphylococcus aureus [1] = test: Antibacterial activity against Staphylococcus aureus ATCC 101 29213; type: functional
Staphylococcus aureus [2] = test: Antibacterial activity against tetracycline- and methicillin-resistant Staphylococcus aureus 161; type: functional
Enterococcus faecalis [3] = test: Antibacterial activity against Enterococcus faecalis ATCC 103 29212; type: functional
Enterococcus faecalis [4] = test: Antibacterial activity against tetracycline-resistant Enterococcus faecalis 159; type: functional
Streptococcus pneumoniae [5] = test: microbe, parasite or virus in culture; type: functional; conditions: ATCC 106 49619
Description: Antibacterial activity against Streptococcus pneumoniae ATCC 106 49619

Escherichia coli [6] = test: Antibacterial activity against Escherichia coli ATCC 107 25922; type: functional
Escherichia coli [7] = test: Antibacterial activity against tetracycline-resistant Escherichia coli 155; type: functional
Acinetobacter baumannii [8] = test: Antibacterial activity against Acinetobacter baumannii ATCC 19606 110; type: functional
Pseudomonas aeruginosa = test: Antibacterial activity against Pseudomonas aeruginosa ATCC 111 27853; type: functional
Enterobacter cloacae = test: Antibacterial activity against Enterobacter cloacae ATCC 108 13047; type: functional
Klebsiella pneumoniae [9] = test: Antibacterial activity against Klebsiella pneumoniae ATCC 109 13883; type: functional
Klebsiella pneumoniae [10] = test: Antibacterial activity against tetracycline-resistant Klebsiella pneumoniae 153; type: functional
Rattus norvegicus = test: (§1) Clearance in Sprague-Dawley rat at 1 mg/kg, iv by LC/MS-MS analysis; type: ADME, organism-based; design: dose 1 mg/kg, route intravenous; conditions: in vivo
[11] = AUClast in Sprague-Dawley rat at 1 mg/kg, iv by LC/MS-MS analysis; type: ADME, organism-based; design: time 0 - last, dose 1 mg/kg, route intravenous; conditions: plasma
[12] = AUClast in Sprague-Dawley rat at 10 mg/kg, po by LC/MS-MS analysis; type: ADME, organism-based; design: dose 10 mg/kg, route oral, time 0 - last; conditions: plasma
[13] = Oral bioavailability in Sprague-Dawley rat at 10 mg/kg by LC/MS-MS analysis; type: ADME, organism-based; conditions: in vivo
[14] = Oral bioavailability in human; type: ADME, organism-based; conditions: in vivo
Staphylococcus aureus [15] = test: Antibacterial activity against tetracycline-resistant Staphylococcus aureus 191 infected in iv dosed CD-1 mouse assessed as dose required for 1 log bacterial burden reduction administered 1.5 hr post infection measured after 24 hrs; type: functional
Staphylococcus aureus [16] = test: Antibacterial activity against tetracycline-resistant Staphylococcus aureus 191 infected in iv dosed CD-1 mouse assessed as dose required for 3 log bacterial burden reduction administered 1.5 hr post infection measured after 24 hrs; type: functional
Staphylococcus aureus [17] = test: microbe, parasite or virus in culture; type: functional; conditions: 158
Streptococcus pneumoniae [18] = test: Antibacterial activity against tetracycline-resistant Streptococcus pneumoniae 160; type: functional
Escherichia coli [19] = test: Antibacterial activity against tetracycline-resistant Escherichia coli 133 infected in iv dosed CD-1 mouse assessed as protection from infection administered 1 hr post infection measured after 24 hrs; type: functional; conditions: Escherichia coli, 133, iv; read-out: PD50
Escherichia coli [20] = test: Antibacterial activity against tetracycline-resistant Escherichia coli 133 infected in iv dosed CD-1 mouse assessed as reduction in bacterial burden administered 1 hr post infection measured after 24 hrs; type: functional
Staphylococcus aureus [21] = test: Antibacterial activity against tetracycline-resistant Staphylococcus aureus 191 infected in iv dosed CD-1 mouse assessed as reduction in bacterial burden administered 1.5 hr post infection measured after 24 hrs; type: functional
[22] = Elimination half life in Sprague-Dawley rat at 10 mg/kg, po by LC/MS-MS analysis; type: ADME, organism-based; design: dose 10 mg/kg, route oral; conditions: in vivo, read-out: beta t1/2 (converted)
Escherichia coli [23] = test: Ratio of tetracycline IC50 to compound IC50 for Escherichia coli ribosome-mediated translation; type: subcellular
Staphylococcus aureus [24] = test: Ratio of tigecycline MIC to compound MIC for Staphylococcus aureus ATCC 101 29213; type: functional
Enterococcus faecalis [25] = test: Ratio of tigecycline MIC to compound MIC for Enterococcus faecalis ATCC 103 29212; type: functional
Escherichia coli [26] = test: Ratio of tigecycline MIC to compound MIC for Escherichia coli ATCC 107 25922; type: functional
Acinetobacter baumannii [27] = test: Ratio of tigecycline MIC to compound MIC for Acinetobacter baumannii ATCC 19606 110; type: functional
[28] = as §1; type: ADME, organism-based; design: dose 1 mg/kg, route intravenous; conditions: Sprague-Dawley, in vivo
[29] = Apparent volume of distribution in Sprague-Dawley rat at 1 mg/kg, iv by LC/MS-MS analysis; conditions: in vivo
[30] = Elimination half life in Sprague-Dawley rat at 1 mg/kg, iv by LC/MS-MS analysis; type: ADME, organism-based; design: dose 1 mg/kg, route intravenous; conditions: in vivo, read-out: beta t1/2 (converted)

Row | SMILES | MIC (Staphylococcus aureus [1]) | MIC (Staphylococcus aureus [2]) | MIC (Enterococcus faecalis [3]) | MIC (Enterococcus faecalis [4]) | MIC (Streptococcus pneumoniae [5]) | MIC (Escherichia coli [6]) | MIC (Escherichia coli [7]) | MIC (Acinetobacter baumannii [8]) | MIC (Pseudomonas aeruginosa) | MIC (Enterobacter cloacae) | MIC (Klebsiella pneumoniae [9]) | MIC (Klebsiella pneumoniae [10]) | AUC(0-t) [11] | AUC(0-t) [12] | bioavailability [13] | Activity (Staphylococcus aureus [15]) | Activity (Staphylococcus aureus [16]) | MIC (Staphylococcus aureus [17]) | MIC (Streptococcus pneumoniae [18]) | further results
1 | CN(C)[C@@H]1C(O)=C(C(N)=O)C(=O)[C@@]2(O)C(O)=C3C(=O)c4c(O)cccc4[C@@](C)(O)[C@H]3C[C@@H]12 [TETRACYCLINE] | 0.125 µg/mL (≈ 0.281 µM) | 64 µg/mL (≈ 144 µM) | 16 µg/mL (≈ 36 µM) | 64 µg/mL (≈ 144 µM) | 0.25 µg/mL (≈ 0.563 µM) | > 1 µg/mL | > 64 µg/mL | 1 µg/mL (≈ 2.25 µM) | 16 µg/mL (≈ 36 µM) | 1 µg/mL (≈ 2.25 µM) | 2 µg/mL (≈ 4.5 µM) | > 64 µg/mL | 3080 ng·h/mL | 4540 ng·h/mL | 14.9% |  |  |  |  | IC50 (Bacterial 70S ribosome): 4580 nM; CL (Rattus norvegicus): 9.03 mL/min/kg; bioavailability [14]: 60%
2 | CN[C@H](CC(C)C)C(=O)N[C@H]1C(=O)N[C@@H](CC(N)=O)C(=O)N[C@H]2C(=O)N[C@H]3C(=O)N[C@H](C(=O)N[C@H](C(=O)O)c4cc(O)cc(O)c4-c4cc3ccc4O)[C@H](O)c3ccc(c(Cl)c3)Oc3cc2cc(c3O[C@@H]2O[C@H](CO)[C@@H](O)[C@H](O)[C@H]2O[C@H]2C[C@](C)(N)[C@H](O)[C@H](C)O2)Oc2ccc(cc2Cl)[C@H]1O [VANCOMYCIN] |  |  |  |  |  |  |  |  |  |  |  |  |  |  |  | 0.75 mg/kg | 10 mg/kg |  |  | 
3 | CN(C)[C@@H]1C(O)=C(C(N)=O)C(=O)[C@@]2(O)C(O)=C3C(=O)c4c(O)c(NC(=O)CN5CC[C@H](F)C5)cc(F)c4C[C@H]3C[C@@H]12 | 0.25 µg/mL (≈ 0.434 µM) | 0.5 µg/mL (≈ 0.867 µM) | 0.25 µg/mL (≈ 0.434 µM) | 0.25 µg/mL (≈ 0.434 µM) | 0.0156 µg/mL (≈ 0.0271 µM) | 2 µg/mL (≈ 3.47 µM) | 32 µg/mL (≈ 55.5 µM) | 0.125 µg/mL (≈ 0.217 µM) | > 32 µg/mL | 4 µg/mL (≈ 6.94 µM) | 4 µg/mL (≈ 6.94 µM) | 32 µg/mL (≈ 55.5 µM) |  |  |  |  |  | 1 µg/mL (≈ 1.73 µM) | 0.0156 µg/mL (≈ 0.0271 µM) | 
4 | CN(C)[C@@H]1C(O)=C(C(N)=O)C(=O)[C@@]2(O)C(O)=C3C(=O)c4c(O)c(NC(=O)CN5CCC5)cc(F)c4C[C@H]3C[C@@H]12 | 0.125 µg/mL (≈ 0.23 µM) | 0.25 µg/mL (≈ 0.459 µM) | 0.0625 µg/mL (≈ 0.115 µM) | 0.125 µg/mL (≈ 0.23 µM) | 0.0156 µg/mL (≈ 0.0286 µM) | 0.25 µg/mL (≈ 0.459 µM) | 8 µg/mL (≈ 14.7 µM) | 2 µg/mL (≈ 3.67 µM) | 8 µg/mL (≈ 14.7 µM) | 1 µg/mL (≈ 1.84 µM) | 1 µg/mL (≈ 1.84 µM) | 4 µg/mL (≈ 7.35 µM) |  |  |  |  |  | 0.5 µg/mL (≈ 0.918 µM) | 0.0156 µg/mL (≈ 0.0286 µM) | 
5 | CN(C)c1cc(NC(=O)CNC(C)(C)C)c(O)c2c1C[C@H]1C[C@H]3[C@H](N(C)C)C(O)=C(C(N)=O)C(=O)[C@@]3(O)C(O)=C1C2=O [TIGECYCLINE] | 0.0625 µg/mL (≈ 0.107 µM) | 0.125 µg/mL (≈ 0.213 µM) | 0.0625 µg/mL (≈ 0.107 µM) | 0.0625 µg/mL (≈ 0.107 µM) | 0.0156 µg/mL (≈ 0.0266 µM) | 0.125 µg/mL (≈ 0.213 µM) | 1 µg/mL (≈ 1.71 µM) | 0.5 µg/mL (≈ 0.854 µM) | 16 µg/mL (≈ 27.3 µM) | 0.25 µg/mL (≈ 0.427 µM) | 0.25 µg/mL (≈ 0.427 µM) | 1 µg/mL (≈ 1.71 µM) | 1050 ng·h/mL | 107 ng·h/mL | 1% | 3 mg/kg | 17.3 mg/kg | 0.125 µg/mL (≈ 0.213 µM) | 0.0156 µg/mL (≈ 0.0266 µM) | ED50 (Escherichia coli [19]): 3.5 mg/kg; MIC (Escherichia coli [20]): 0.125 µg/mL (≈ 0.213 µM); MIC (Staphylococcus aureus [21]): 0.25 µg/mL (≈ 0.427 µM); half-life [22]: 3.98 h
6 | CN(C)CC(=O)Nc1cc(F)c2c(c1O)C(=O)C1=C(O)[C@]3(O)C(=O)C(C(N)=O)=C(O)[C@@H](N(C)C)[C@@H]3C[C@@H]1C2 | 0.0156 µg/mL (≈ 0.0293 µM) | 0.125 µg/mL (≈ 0.235 µM) | 0.0156 µg/mL (≈ 0.0293 µM) | 0.0312 µg/mL (≈ 0.0586 µM) | 0.0156 µg/mL (≈ 0.0293 µM) | 0.125 µg/mL (≈ 0.235 µM) | 8 µg/mL (≈ 15 µM) | 0.125 µg/mL (≈ 0.235 µM) | 8 µg/mL (≈ 15 µM) | 1 µg/mL (≈ 1.88 µM) | 0.5 µg/mL (≈ 0.939 µM) | 8 µg/mL (≈ 15 µM) |  |  |  |  |  | 0.25 µg/mL (≈ 0.469 µM) | 0.0156 µg/mL (≈ 0.0293 µM) | 
7 | CN(C)[C@@H]1C(O)=C(C(N)=O)C(=O)[C@@]2(O)C(O)=C3C(=O)c4c(O)c(NC(=O)CNCC(F)(F)F)cc(F)c4C[C@H]3C[C@@H]12 | 1 µg/mL (≈ 1.71 µM) | 2 µg/mL (≈ 3.41 µM) | 2 µg/mL (≈ 3.41 µM) | 4 µg/mL (≈ 6.82 µM) | 0.5 µg/mL (≈ 0.853 µM) | > 16 µg/mL | > 32 µg/mL | > 2 µg/mL | > 32 µg/mL | > 32 µg/mL | 32 µg/mL (≈ 54.6 µM) | > 32 µg/mL |  |  |  |  |  | 4 µg/mL (≈ 6.82 µM) | 1 µg/mL (≈ 1.71 µM) | 
8 | CN(C)[C@@H]1C(O)=C(C(N)=O)C(=O)[C@@]2(O)C(O)=C3C(=O)c4c(O)c(NC(=O)CN5CCCC5)cc(F)c4C[C@H]3C[C@@H]12 [ERAVACYCLINE] | 0.0156 µg/mL (≈ 0.0279 µM) | 0.0156 µg/mL (≈ 0.0279 µM) | 0.0156 µg/mL (≈ 0.0279 µM) | 0.0156 µg/mL (≈ 0.0279 µM) | 0.0156 µg/mL (≈ 0.0279 µM) | 0.0156 µg/mL (≈ 0.0279 µM) | 1 µg/mL (≈ 1.79 µM) | 0.0312 µg/mL (≈ 0.0559 µM) | 8 µg/mL (≈ 14.3 µM) | 0.125 µg/mL (≈ 0.224 µM) | 0.125 µg/mL (≈ 0.224 µM) | 0.5 µg/mL (≈ 0.895 µM) | 1770 ng·h/mL | 295 ng·h/mL | 1.7% | 0.6 mg/kg | 3 mg/kg | 0.0156 µg/mL (≈ 0.0279 µM) | 0.0156 µg/mL (≈ 0.0279 µM) | Ratio IC50 (Escherichia coli [23]): 7; IC50 (Bacterial 70S ribosome): 620 nM; Ratio (Staphylococcus aureus [24]): 4; Ratio (Enterococcus faecalis [25]): 4; Ratio (Escherichia coli [26]): 4; Ratio (Acinetobacter baumannii [27]): 4; ED50 (Escherichia coli [19]): 1.3 mg/kg; MIC (Escherichia coli [20]): 0.125 µg/mL (≈ 0.224 µM); MIC (Staphylococcus aureus [21]): 0.25 µg/mL (≈ 0.448 µM); clearance [28]: 9.4 mL/min/kg; Vd [29]: 3.2 L/kg; half-life [30]: 4 h; half-life [22]: 6.9 h
